Measurements: PMC6270263, “Factors Influencing the Antifolate Activity of Synthetic Tea-Derived Catechins” (Molecules, 2013)
Read-outs that look alike come from different tables or passages of the source.

Assays:
[1] = target: T1, bovine serum albumin (BSA) (Bos taurus, UniProt P02769); assay: Competitive site-marker (warfarin, ibuprofen) binding to BSA; conditions: for Kd: BSA, 25 °C, read-out: Binding constant (KA) (converted)
T1 construct: purchased Sigma-Aldrich
Protocol: Next, the site selective binding of both EGCG and TMCG to BSA was analyzed. The capability of serum albumins to bind to aromatic and heterocyclic compounds is largely dependent on the existence of two major binding regions, namely site-I and site-II [25]. Warfarin and ibuprofen are fluorescence probes whose primary binding sites to BSA are site-I and site-II, respectively.
To identify the binding sites of EGCG and TMCG in BSA, the displacements of warfarin and ibuprofen (known to bind at site I and site II, respectively) were followed fluorometrically. Equimolar solutions of BSA and warfarin (5 × 10^−6 M each) were mixed for 1 h and titrated with EGCG and TMCG in separate experiments. Similar solutions containing equimolar ibuprofen and BSA were prepared and separately titrated with EGCG and TMCG to identify the binding sites of EGCG and TMCG with BSA. Titration was followed fluorometrically using an excitation wavelength of 280 nm.

[2] = target: T2, free recombinant human DHFR (rHDHFR) (Homo sapiens, UniProt P00374); assay: Binding of polyphenols to free rHDHFR by fluorescence quenching titration
T2 construct: made in house; host or cells: Bombyx mori chrysalides
T2 sequence (P00374 1-187): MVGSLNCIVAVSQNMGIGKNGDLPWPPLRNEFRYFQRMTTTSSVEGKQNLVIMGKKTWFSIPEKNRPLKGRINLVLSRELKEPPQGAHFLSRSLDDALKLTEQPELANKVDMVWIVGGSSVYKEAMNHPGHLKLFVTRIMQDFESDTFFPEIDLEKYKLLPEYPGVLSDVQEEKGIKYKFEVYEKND
Protocol: Natural and synthetic derivatives of tea catechins have shown to be good inhibitors of human DHFR [7, 11, 16, 18]. To determine the ability of natural and synthetic polyphenols to bind DHFR, we performed a structure-activity study by analyzing the binding of these polyphenols to DHFR using fluorescence quenching. Effective binding to free recombinant human DHFR (rHDHFR) was determined by measuring the decrease in enzyme fluorescence that occurs upon the formation of the enzyme-inhibitor complex. […] The dissociation constants of the synthetic compounds were on the same order as those of the natural analogues, indicating the high DHFR binding capacities of these new derivatives.
The dissociation constants for the binding of polyphenols to free recombinant human DHFR (rHDHFR) were determined by fluorescence titration in an automatic-scanning FluoroMax-3 (Jobin Ybon, Horiba, Edison, NJ, USA) spectrofluorometer with 1.0 cm light path cells and a 150 W mercury-xenon light source. The formation of a binary complex between the enzyme (2.5 × 10^−7 M) and the ligand (from 0 to 40 µM) was followed by measuring the quenching of the tryptophan fluorescence of the enzyme upon the addition of microliter volumes of a concentrated stock solution of ligand. Experiments were performed at pH 7.5 in a buffer containing 2-(N-morpholino)ethanesulfonic acid (Mes, 0.025 M), sodium acetate (0.025 M), tris(hydroxymethyl)aminomethane (Tris 0.05 M), and NaCl (0.1 M). The temperature was controlled at 25 °C using a Haake D1G circulating bath with a heater and cooler. Fluorescence emission spectra were recorded when the human DHFR fluorescence was excited at 290 nm, and titrations were performed as described elsewhere.

T1 sequence (P02769 25-607): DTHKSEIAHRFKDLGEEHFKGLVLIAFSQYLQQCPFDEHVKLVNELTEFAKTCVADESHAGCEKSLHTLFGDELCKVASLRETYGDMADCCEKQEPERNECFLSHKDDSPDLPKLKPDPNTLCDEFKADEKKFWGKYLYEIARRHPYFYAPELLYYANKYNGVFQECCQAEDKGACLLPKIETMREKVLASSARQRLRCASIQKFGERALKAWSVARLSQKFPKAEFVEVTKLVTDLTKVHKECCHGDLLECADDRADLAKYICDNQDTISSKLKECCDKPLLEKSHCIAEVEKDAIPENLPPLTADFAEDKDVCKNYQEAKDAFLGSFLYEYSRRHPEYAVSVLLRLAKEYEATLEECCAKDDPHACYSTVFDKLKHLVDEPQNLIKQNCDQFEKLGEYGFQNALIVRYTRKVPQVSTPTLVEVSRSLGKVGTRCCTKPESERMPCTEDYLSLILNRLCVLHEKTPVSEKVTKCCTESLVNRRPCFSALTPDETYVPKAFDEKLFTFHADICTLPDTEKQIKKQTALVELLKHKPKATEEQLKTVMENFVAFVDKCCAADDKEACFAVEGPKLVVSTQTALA

- Kd ([1]; site marker: Blank): 5.26 µM
- Kd ([1]; site marker: Ibuprofen): 9.09 µM
- Kd ([1]; site marker: Warfarin): 20 µM
- Site selective binding to BSA ([1]; competition with warfarin (site-I) and ibuprofen (site-II)): higher specificity for site-I
- Kd ([2]; Table 2, restates Table 1, read-out: KD, order of binding strengths to rHDHFR depending on D-ring substitution): 0.9 µM
- Kd ([2]; pH 7.5, 25 °C, fluorescence titration, read-out: Dissociation constant KD of free rHDHFR): 0.9 ± 0.1 µM
Compound: COc1cc(C(=O)O[C@H]2Cc3c(O)cc(O)cc3O[C@@H]2c2ccc(O)c(O)c2)cc(OC)c1OC [TMCG]
